One data set concerns the target T1, TF/FVIIa (Homo sapiens, UniProt P08709).
T1 construct: Coagulation factor VIIa initiates the extrinsic part of the coagulation cascade
The experiment in a line: TF/FVIIa inhibition (TF/FVIIa-IC50). It is filed as biochemical. An excerpt: The inhibition of factor VIIa by the compounds according to the invention and the measurement of the anticoagulant and antithrombotic activity can be determined by conventional in-vitro or in-vivo methods. A conventional method for the measurement of the inhibition of factor VIIa is described, for example, by H. F. Ronning et al. in Thrombosis Research 1996, 84, 73-81.

The next data set addresses FXa (Homo sapiens, UniProt P00742). The experiment in a line: Factor Xa inhibition (FXa-IC50). The data set is classed as biochemical. An excerpt:
The inhibition of factor Xa by the compounds according to the invention and the measurement of the anticoagulant and antithrombotic activity can be determined by conventional in-vitro or in-vivo methods. A suitable method is described, for example, by J. Hauptmann et al. in Thrombosis and Haemostasis 1990, 63, 220-223.
The inhibition of factor Xa can be measured, for example, by the method of T. Hara et al. in Thromb. Haemostas. 1994, 71, 314-319.

T1 sequence (P08709 213-466 limits assumed): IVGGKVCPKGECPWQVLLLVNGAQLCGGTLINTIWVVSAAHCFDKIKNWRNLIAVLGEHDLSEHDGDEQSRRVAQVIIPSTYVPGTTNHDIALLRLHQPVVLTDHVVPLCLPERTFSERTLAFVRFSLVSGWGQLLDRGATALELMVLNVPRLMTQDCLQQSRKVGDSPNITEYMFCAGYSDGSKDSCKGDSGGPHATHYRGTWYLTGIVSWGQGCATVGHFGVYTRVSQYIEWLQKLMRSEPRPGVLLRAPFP
T1 sequence (P08709 61-212 limits assumed): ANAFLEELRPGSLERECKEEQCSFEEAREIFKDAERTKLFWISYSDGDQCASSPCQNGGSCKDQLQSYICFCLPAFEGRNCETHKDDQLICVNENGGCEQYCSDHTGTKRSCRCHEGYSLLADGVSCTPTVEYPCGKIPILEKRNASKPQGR
T1 sequence (P13726 33-295 partner): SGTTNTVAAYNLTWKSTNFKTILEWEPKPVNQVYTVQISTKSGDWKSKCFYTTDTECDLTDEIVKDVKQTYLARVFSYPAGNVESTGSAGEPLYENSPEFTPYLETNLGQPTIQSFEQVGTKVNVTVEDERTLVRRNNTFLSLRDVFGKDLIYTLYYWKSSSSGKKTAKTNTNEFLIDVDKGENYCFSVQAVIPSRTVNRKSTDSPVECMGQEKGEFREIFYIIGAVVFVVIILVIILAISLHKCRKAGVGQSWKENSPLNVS
Chain of FXa (P00742 235-488 limits assumed): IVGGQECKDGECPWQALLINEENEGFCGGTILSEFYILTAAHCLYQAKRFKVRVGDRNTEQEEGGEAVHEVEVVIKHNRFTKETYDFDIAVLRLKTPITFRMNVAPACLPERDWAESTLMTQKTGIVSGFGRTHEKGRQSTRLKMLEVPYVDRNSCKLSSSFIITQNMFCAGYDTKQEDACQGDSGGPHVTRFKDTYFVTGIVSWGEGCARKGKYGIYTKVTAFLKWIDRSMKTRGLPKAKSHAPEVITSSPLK
Chain of FXa (P00742 41-179 limits assumed): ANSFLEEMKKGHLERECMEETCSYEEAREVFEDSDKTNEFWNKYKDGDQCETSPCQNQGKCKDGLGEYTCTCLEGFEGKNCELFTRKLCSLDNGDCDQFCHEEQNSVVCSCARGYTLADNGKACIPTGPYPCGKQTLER

With `O=C(Nc1ccc(Cl)cc1)NN(C(=O)Nc1ccc(N2CCCCC2=O)cc1)c1ccccc1` [No. 1, N-(4-Chlorophenylaminocarbonyl)-N′-[4-(2-oxo-1-piperidyl)phenylaminocarbonyl]-N′-phenylhydrazine], the melting point is 165 to 170 °C (dec.). For the same compound, at TF/FVIIa, the IC50 is 91 nM. The midpoint of inhibition against FXa, the IC50, lay at 180 nM.
In the case of `O=C(Nc1ccc(Cl)cc1)NN(C(=O)Nc1ccc(N2CCCCC2=O)cc1)c1ccc(Cl)cc1` [compound 2], the melting point fell in the range of 170 to 175 °C. Half-maximal inhibition against TF/FVIIa (IC50) was put at 340 nM. For the same compound, the IC50 at FXa amounted to 670 nM.
On to `CS(=O)(=O)c1ccccc1-c1ccc(NC(=O)N(NC(=O)Nc2ccc(Cl)cc2)c2ccccc2)cc1` [compound 3], for which the melting point is more than 250 °C. For the same compound, the IC50 on TF/FVIIa was 190 nM. The IC50 against FXa amounted to 390 nM.

What is called melting point is the temperature, or range, at which the solid turns liquid. The term IC50 denotes the concentration that inhibits the measured activity by half.

The record behind these values is patent US6943179B2, “Biurethane derivatives” (Merck Patent GmbH, priority 2001, dated 2005).
